The text below walks through data of patent publication US12410160B2 (Gilead Sciences, Inc., priority 2021, dated 2025).

One may read the IC50 as the concentration that gives 50% inhibition. As usually defined, the EC50 is the midpoint of the concentration-response curve. Low values mean greater potency, high ones weaker potency.

The target in one assay is human KHK-C (Homo sapiens (Human), UniProt P50053). The assay can be described thus: KHK Biochemical Assay (IC50), ADP-Glo, KHK-C. The conditions noted are these: average of at least two separate assays. In a few lines: (§1)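 ADP-Glo luminescence measured ADP made over a 4 h room-temperature reaction of ATP plus fructose, started after 30 min compound–enzyme pre-incubation. Buffer: 50 mM Hepes pH 7.4, 140 mM KCl, 5 mM MgCl2, 0.01% Triton-X. Enzyme was His-tagged, BL21 (DE3)-expressed, Ni-NTA-purified; compounds in 1:3 DMSO dilution series.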
Background: ADP-Glo first removes unused ATP, then detects ADP through luciferase.

Another assay deals with human KHK-A (Homo sapiens (Human), UniProt P50053). Briefly: KHK Biochemical Assay (IC50), ADP-Glo, KHK-A. To be noted: average of at least two separate assays. In a few lines: as §1
For assay [1], the target named is KHK-C expressed in NRK-52E cells (Homo sapiens (Human), UniProt P50053). Briefly: KHK-C Cell-based Assay (EC50), NRK CTG, fructose-mediated ATP-depletion.
Chain of KHK-C expressed in NRK-52E cells (P50053 whole entry): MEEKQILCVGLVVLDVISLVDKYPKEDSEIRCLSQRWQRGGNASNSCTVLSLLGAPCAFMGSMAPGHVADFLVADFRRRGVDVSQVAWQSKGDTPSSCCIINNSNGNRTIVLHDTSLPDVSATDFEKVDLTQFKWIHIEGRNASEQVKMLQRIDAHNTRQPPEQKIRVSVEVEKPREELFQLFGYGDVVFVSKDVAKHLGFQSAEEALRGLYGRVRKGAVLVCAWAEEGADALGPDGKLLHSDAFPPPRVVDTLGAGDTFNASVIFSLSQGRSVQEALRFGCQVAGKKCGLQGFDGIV
Experimental: Compounds were tested in a high-throughput 384-well assay format for their ability to attenuate fructose-mediated ATP-depletion in Normal Rat Kidney epithelial cells (NRK-52E) using the Cell-Titer Glo (CTG) assay, which measures cellular ATP levels based on luminescence signal by using the luciferase-luciferin system. Compounds were serially diluted (1:3) in DMSO.
The plates were incubated at 37° C., 5% CO2 for one day. Cells were then transduced on day 2 with 200 MOI of Adenovirus (VQAd KHKC C-(K)-DYK ViraQuest Inc.) using the same medium and method as day-1 to induce KHK-C expression in the cells. Cells were incubated at 37° C., 5% CO2 for one day. On day-3, the medium was changed to DMEM medium (Corning, Catalog #10-014-CM) with 0.5% FBS and Penicillin-Streptomycin after washing the cells twice with sterile PBS on the BioTEK EL406 washer and dispenser. Test compounds were then diluted 200-fold into the assay plates using the BioMek FX and were incubated for 1 hour at 37° C., 5% CO2. 25 mM (final concentration) of fructose was then dispensed into the plates using the BioTEK EL406 dispenser and the plates were incubated at 37° C., 5% CO2 for 48 hours before addition of CTG reagent and measurement of luminescence signal.

Chain of human KHK-A (P50053 other isoform, or with tags, fused parts or gaps): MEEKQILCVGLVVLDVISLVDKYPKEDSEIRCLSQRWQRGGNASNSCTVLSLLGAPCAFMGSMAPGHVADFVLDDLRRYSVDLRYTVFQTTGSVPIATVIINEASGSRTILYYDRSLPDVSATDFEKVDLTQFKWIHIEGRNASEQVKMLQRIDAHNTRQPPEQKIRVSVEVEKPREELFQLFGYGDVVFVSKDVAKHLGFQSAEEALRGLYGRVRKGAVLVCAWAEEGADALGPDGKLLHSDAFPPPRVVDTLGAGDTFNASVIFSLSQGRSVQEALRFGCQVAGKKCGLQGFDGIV
Chain of human KHK-C (P50053 whole entry): as the sequence (P50053 whole entry) above

For `C[C@H]1CCN1c1nc2c(c(-c3ccc4c(c3)C(=O)NC(=O)C4)n1)CCC2` [Example 424, (S)-7-(2-(2-methylazetidin-1-yl)-6,7-dihydro-5H-cyclopenta[d]pyrimidin-4-yl)isoquinoline-1,3(2H,4H)-dione], the IC50 on human KHK-C stood at 136 nM; against human KHK-A it was 169 nM. The molecule further displayed an EC50 in assay [1] of 3510 nM.
The like results for `C[C@H]1[C@H](O)CN1c1nc(-c2ccc3c(c2)OC[C@@]32CN(C)C(=O)N2)c2c(n1)C(F)(F)CC2` (single isomer, unassigned) [Example 702] were, in that order, 0.2 nM, 11.7 nM and 3.9 nM.
Taken in the same sequence, the figures for `C[C@H]1[C@H](O)CN1c1nc(-c2ccc3c(c2)OC[C@]32NC(=O)OC2(C)C)c2c(n1)C(F)(F)CC2` (single isomer, unassigned) [Example 566] were 0.8 nM, 16.3 nM and 6.7 nM.
Consider `C[C@H]1[C@H](F)CN1c1nc2c(c(-c3cccc(S(N)(=O)=O)c3)n1)CCC2` [Example 210], for which the IC50 at human KHK-C (ADP-Glo) is 19.7 nM; against human KHK-A (ADP-Glo), 17.6 nM. In assay [1], this molecule showed an EC50 of 38.2 nM.
The like results for `CC(=O)N1C[C@H](C(N)=O)[C@@H](c2cccc(-c3nc(N4CC[C@@H]4C)nc4c3CCC4)c2)C1` (relative stereo) [Example 146, (3R*,4S*)-1-acetyl-4-(3-(2-((S)-2-methylazetidin-1-yl)-6,7-dihydro-5H-cyclopenta[d]pyrimidin-4-yl)phenyl)pyrrolidine-3-carboxamide] were, in that order, 116 nM, 118 nM and 423 nM.
The like results for `C[C@H]1CCN1c1nc2c(c(-c3cccc(CN4CCOCC4)c3)n1)CCC2` [Example 349, 4-[[3-[2-[(2S)-2-methylazetidin-1-yl]-6,7-dihydro-5H-cyclopenta[d]pyrimidin-4-yl]phenyl]methyl]morpholine] were, in that order, 90.6 nM, 79.3 nM and 305 nM.
Take `C[C@@H]1N(c2nc(-c3ccc4c(c3)OC[C@@]43COC(=O)N3)c3c(n2)C(F)(F)CC3)C[C@@]1(C)O` [Example 829, (3R)-6-[7,7-difluoro-2-[(2S,3R)-3-hydroxy-2,3-dimethyl-azetidin-1-yl]-5,6-dihydrocyclopenta[d]pyrimidin-4-yl]spiro[2H-benzofuran-3,4′-oxazolidine]-2′-one]: the IC50 amounted to 1 nM on human KHK-C (ADP-Glo) and 25.8 nM against human KHK-A (ADP-Glo). Also, the EC50 in assay [1] was 10.4 nM.
The like results for `O=C1N[C@@]2(CO1)COc1cc(-c3nc(N4CC[C@@H]4C(F)(F)F)nc4c3CCC4(F)F)ccc12` [Example 830, (R)-6-(7,7-difluoro-2-((R)-2-(trifluoromethyl)azetidin-1-yl)-6,7-dihydro-5H-cyclopenta[d]pyrimidin-4-yl)-2H-spiro[benzofuran-3,4′-oxazolidin]-2′-one] were, in that order, 0.2 nM, 2 nM and 3.2 nM.
The like results for `C[C@H]1[C@H](O)CN1c1nc2c(c(-c3ccc(CNS(C)(=O)=O)s3)n1)CCC2` [Example 377, N-[[5-[2-[(2S,3R)-3-hydroxy-2-methyl-azetidin-1-yl]-6,7-dihydro-5H-cyclopenta[d]pyrimidin-4-yl]-2-thienyl]methyl]methanesulfonamide] were, in that order, 21.1 nM, 26.9 nM and 92.9 nM.
Taken in the same sequence, the figures for `C[C@H]1[C@H](O)CN1c1nc2c(c(-c3ccc4c(c3)CCNC4=O)n1)CCC2` [Example 288] were 44.3 nM, 103 nM and 108 nM.
For the molecule `C[C@H]1CCN1c1nc(-c2cccc(CNS(C)(=O)=O)c2)c2c(n1)C(F)(F)CC2` [Example 323, (S)—N-(3-(7,7-difluoro-2-(2-methylazetidin-1-yl)-6,7-dihydro-5H-cyclopenta[d]pyrimidin-4-yl)benzyl)methanesulfonamide], the figures for the IC50 at human KHK-C (ADP-Glo) and at human KHK-A (ADP-Glo) were 4.2 nM and 4.7 nM, respectively. This molecule showed an EC50 in assay [1] of 16.1 nM.
Turning to `C[C@H]1CCN1c1nc2c(c(-c3cscn3)n1)CCC2` [Example 36, (S)-4-(2-(2-methylazetidin-1-yl)-6,7-dihydro-5H-cyclopenta[d]pyrimidin-4-yl)thiazole], the IC50 was found to be 146 nM against human KHK-C (ADP-Glo) and 147 nM on human KHK-A (ADP-Glo). For the same molecule, the EC50 in assay [1] was 434 nM.
With `C[C@H]1[C@H](O)CN1c1nc(-c2ccc3c(c2)CCC32CCC(=O)N2)c2c(n1)C(F)(F)CC2` (stereo partly drawn) [Example 636, 5-(7,7-difluoro-2-((2S,3R)-3-hydroxy-2-methylazetidin-1-yl)-6,7-dihydro-5H-cyclopenta[d]pyrimidin-4-yl)-2,3-dihydrospiro[indene-1,2′-pyrrolidin]-5′-one], the results for the IC50 against human KHK-C and against human KHK-A were 0.5 nM and 11.4 nM, respectively. The molecule further displayed a concentration for a half-maximal effect (EC50) in assay [1] of 13 nM.
As to `C[C@H]1CCN1c1nc2c(c(-c3ccc4c(c3)CNC4=O)n1)CCC2` [Example 187, 5-[2-[(2S)-2-methylazetidin-1-yl]-6,7-dihydro-5H-cyclopenta[d]pyrimidin-4-yl]isoindolin-1-one], the IC50 on human KHK-C (ADP-Glo) amounted to 22.4 nM; against human KHK-A (ADP-Glo), 33.3 nM. For the same molecule, a half-maximal response in assay [1] (EC50) required 91.6 nM.
The like results for `C[C@H]1[C@H](O)CN1c1nc2c(c(-c3ccc(CN)cc3)n1)CCC2` [Example 202, (2S,3R)-1-[4-[4-(aminomethyl)phenyl]-6,7-dihydro-5H-cyclopenta[d]pyrimidin-2-yl]-2-methyl-azetidin-3-ol] were, in that order, 7.7 nM, 9.8 nM and 111 nM.
Taken in the same sequence, the figures for `C[C@H]1CCN1c1nc2c(c(-c3cccc(CN(C)C)c3)n1)CCC2` [Example 346, N,N-dimethyl-1-[3-[2-[(2S)-2-methylazetidin-1-yl]-6,7-dihydro-5H-cyclopenta[d]pyrimidin-4-yl]phenyl]methanamine] were 14.7 nM, 16.7 nM and 27.5 nM.
Turning to `C[C@@H]1N(c2nc3c(c(-c4ccc(C(N)=O)cc4)n2)CCC3)C[C@@]1(C)O` [Example 141], the IC50 at human KHK-C (ADP-Glo) worked out at 290 nM; against human KHK-A (ADP-Glo), 334 nM. In assay [1], this molecule displayed an EC50 of 1260 nM.
The like results for `C[C@H]1CCN1c1nc2c(c(-c3cnc4c(c3)NCCO4)n1)CCC2` [Example 263, 7-[2-[(2S)-2-methylazetidin-1-yl]-6,7-dihydro-5H-cyclopenta[d]pyrimidin-4-yl]-2,3-dihydro-1H-pyrido[2,3-b][1,4]oxazine] were, in that order, 50 nM, 96.2 nM and 155 nM.
The like results for `C[C@H]1CCN1c1nc2c(c(-c3ccc4c(c3)CC3C(C(=O)O)C43)n1)CCC2` (stereo partly drawn) [Example 136, 4-(2-((S)-2-methylazetidin-1-yl)-6,7-dihydro-5H-cyclopenta[d]pyrimidin-4-yl)-1,1a,6,6a-tetrahydrocyclopropa[a]indene-1-carboxylic acid] were, in that order, 62 nM, 114 nM and 2460 nM.
The like results for `C[C@H]1CCN1c1nc2c(c(-c3ccc4nc(O)ccc4c3)n1)CCC2` [Example 175, (S)-6-(2-(2-methylazetidin-1-yl)-6,7-dihydro-5H-cyclopenta[d]pyrimidin-4-yl)quinolin-2-ol] were, in that order, 49.8 nM, 66.5 nM and 249 nM.
